{"source": "patent US20110256613A1", "about": "“Designer proton-channel transgenic algae for photobiological hydrogen production” (priority 2006, published 2011)", "key": {"algal hydrogenase": {"test_system": "algal hydrogenase", "experiment": "O2 sensitivity of hydrogenase per se", "assay_type": "biochemical", "description": "(§1) (4). Competitive drainage of electrons by O2 in algal H2 production. We have recently discovered a new O2 sensitivity in algal H2 production that is distinct from the O2 sensitivity of hydrogenase per se. This O2 sensitivity is apparently linked to the photosynthetic H2 production pathway that is coupled to proton translocation across the thylakoid membrane. […] This inhibition is likely due to the background O2, which apparently serves as a terminal electron acceptor in competition with the H2-production pathway for photosynthetically generated electrons from water splitting. The Rubisco enzyme of the Calvin cycle is known to be also an oxygenase in addition to its carboxylase activity. […] That is, the drainage of electrons by O2 is likely to occur at the point of Rubisco, which is one of the key enzymes of the Calvin cycle. This competitive inhibition of H2 production by O2 is much more of a problem than the traditionally known O2 sensitivity of the hydrogenase per se. […] The competitive inhibition of H2 production by O2 is about 10 times more sensitive to O2 than the traditionally known O2 sensitivity of hydrogenase. The drainage of electrons by O2 in competition with the Fd/hydrogenase H2 production pathway is 10 time more sensitive to O2 than the O2 sensitivity of the hydrogenase. […]"}, "algal H2 production": {"test_system": "algal H2 production", "experiment": "Competitive inhibition of photosynthetic H2 production by O2", "assay_type": "cell-based", "description": "as §1"}, "algal system": {"test_system": "algal system", "experiment": "Competitive inhibition of photosynthetic H2 production by CO2", "assay_type": "cell-based", "description": "(2). Competitive inhibition of photosynthetic H2 production by CO2. […] This inhibition of H2 evolution by CO2 has been characterized in experimental studies at ORNL. […] Therefore, unless the alga is genetically reengineered to control the Calvin cycle activity, photosynthetic H2 production would require a nearly CO2-free environment."}, "[1]": {"test_system": "photosystem II (PSII) water-splitting complex in algal cells", "settings": "cited from earlier work"}, "photosystem II (PSII)": {"test_system": "photosystem II (PSII)", "settings": "addition of HCO3− to HCO3−-depleted samples; cited from earlier work"}}}
{"smiles": "O=O", "note": "[O2]", "values": [{"measurement": "O2 concentration at which algal hydrogenase is still active", "setting": "algal hydrogenase", "result": 5000, "unit": "ppm"}, {"measurement": "O2 concentration that inhibits photosynthetic H2 production", "setting": "algal H2 production; lowest inhibiting concentration", "result": "500-1000 ppm"}, {"measurement": "O2 sensitivity of competitive inhibition of H2 production relative to O2 sensitivity of hydrogenase", "setting": "algal H2 production; ratio versus hydrogenase O2 sensitivity", "result": "about 10 times"}]}
{"smiles": "O=C=O", "note": "[CO2, carbon dioxide]", "values": [{"measurement": "steady-state H2 photoevolution after CO2 injection", "setting": "algal system; injection of 58 ppm CO2", "result": "inhibited to nearly zero"}, {"measurement": "CO2 concentration to which the algal system is sensitive", "setting": "algal system; lowest concentration, H2 photoevolution", "result": 30, "unit": "ppm"}]}
{"smiles": "N#CC(C#N)=NNc1cccc(Cl)c1", "note": "[CCCP, carbonyl cyanide m-chlorophenylhydrazone]", "values": [{"measurement": "side effects on photosynthetic activity (ADRY effect)", "setting": "[1]", "result": "undesirable side effects"}]}
{"smiles": "O=C(O)O", "note": "[HCO3^−, Bicarbonate]", "values": [{"measurement": "stimulation of PSII electron-transport activity", "setting": "photosystem II (PSII)", "result": "6- to 7 fold"}]}
